Measurements as given in the supplement of paper PMC5662764.
± gives the standard deviation of the averaged measurements.

What was measured:
Test in all cases: normalised growth rate inhibition (GR value) relative to DMSO control (GR (1 = untreated growth, 0 = cytostasis, <0 = cytotoxic)); higher = less growth inhibition
Conditions in all cases: 72 h
MCF10A = tested on: MCF10A
Protocol: (§1)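 Breast cancer cell lines (BT-20, Hs 578T, MCF 10A, MCF7, MDA-MB-231, SK-BR-3) were plated in 384-well plates and treated 24 h later with drugs at six concentrations (0.04-10 µM). Viable cells were counted by Hoechst/dead-cell-stain imaging at 0 and 72 h. Counts were normalised to DMSO controls on the same plate to give the relative cell count and the growth-rate inhibition (GR) value; technical plate triplicates were averaged for each biological replicate.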

MCF7 = tested on: MCF7
Protocol: as §1

BT20 = tested on: BT20
Protocol: as §1

MDAMB231 = tested on: MDAMB231
Protocol: as §1

SKBR3 = tested on: SKBR3
Protocol: as §1

HS578T = tested on: HS578T
Protocol: as §1

Row | SMILES | normalised growth rate inhibition (MCF10A; 0.04 µM) | normalised growth rate inhibition (MCF10A; 0.12 µM) | normalised growth rate inhibition (MCF10A; 0.37 µM) | normalised growth rate inhibition (MCF10A; 1.11 µM) | normalised growth rate inhibition (MCF10A; 3.33 µM) | normalised growth rate inhibition (MCF10A; 10 µM) | normalised growth rate inhibition (MCF7; 0.04 µM) | normalised growth rate inhibition (MCF7; 0.12 µM) | normalised growth rate inhibition (MCF7; 0.37 µM) | normalised growth rate inhibition (MCF7; 1.11 µM) | normalised growth rate inhibition (MCF7; 3.33 µM) | normalised growth rate inhibition (MCF7; 10 µM) | normalised growth rate inhibition (BT20; 0.04 µM) | normalised growth rate inhibition (BT20; 0.12 µM) | normalised growth rate inhibition (BT20; 0.37 µM) | normalised growth rate inhibition (BT20; 1.11 µM) | normalised growth rate inhibition (BT20; 3.33 µM) | normalised growth rate inhibition (BT20; 10 µM) | normalised growth rate inhibition (MDAMB231; 0.04 µM) | normalised growth rate inhibition (MDAMB231; 0.12 µM) | normalised growth rate inhibition (MDAMB231; 0.37 µM) | normalised growth rate inhibition (MDAMB231; 1.11 µM) | normalised growth rate inhibition (MDAMB231; 3.33 µM) | normalised growth rate inhibition (MDAMB231; 10 µM) | normalised growth rate inhibition (SKBR3; 0.04 µM) | normalised growth rate inhibition (SKBR3; 0.12 µM) | normalised growth rate inhibition (SKBR3; 0.37 µM) | normalised growth rate inhibition (SKBR3; 1.11 µM) | normalised growth rate inhibition (SKBR3; 3.33 µM) | normalised growth rate inhibition (SKBR3; 10 µM) | normalised growth rate inhibition (HS578T; 0.04 µM) | normalised growth rate inhibition (HS578T; 0.12 µM) | normalised growth rate inhibition (HS578T; 0.37 µM) | normalised growth rate inhibition (HS578T; 1.11 µM) | normalised growth rate inhibition (HS578T; 3.33 µM) | normalised growth rate inhibition (HS578T; 10 µM)
1 | COC1=C2C[C@@H](C)C[C@H](OC)[C@H](O)[C@@H](C)/C=C(\C)[C@H](OC(N)=O)[C@@H](OC)/C=C\C=C(/C)C(=O)NC(=CC1=O)C2=O [geldanamycin] | 0.111 ± 0.066 | -0.0212 ± 0.045 | -0.0537 ± 0.053 | -0.0551 ± 0.04 | -0.0997 ± 0.049 | -0.171 ± 0.06 | 0.503 ± 0.079 | 0.134 ± 0.026 | 0.0361 ± 0.021 | 0.0592 ± 0.03 | -0.0316 ± 0.038 | -0.3 ± 0.085 | 0.262 ± 0.1 | 0.00984 ± 0.086 | -0.0513 ± 0.1 | -0.0518 ± 0.12 | -0.114 ± 0.12 | -0.238 ± 0.1 | 0.443 ± 0.2 | 0.0763 ± 0.097 | 0.0142 ± 0.17 | -0.0565 ± 0.17 | -0.148 ± 0.15 | -0.284 ± 0.13 | 0.0174 ± 0.11 | -0.0672 ± 0.11 | -0.0584 ± 0.085 | -0.03 ± 0.059 | -0.187 ± 0.11 | -0.441 ± 0.14 | 0.762 ± 0.073 | 0.219 ± 0.12 | 0.143 ± 0.062 | 0.121 ± 0.071 | 0.0267 ± 0.14 | -0.11 ± 0.17
2 | Cc1ccc(NC(=O)c2ccc(CN3CCN(C)CC3)cc2)cc1Nc1nccc(-c2cccnc2)n1 [imatinib] | 1.002 ± 0.0079 | 1.001 ± 0.0023 | 0.9962 ± 0.003 | 1 ± 0.014 | 1.01 ± 0.018 | 0.998 ± 0.031 | 1.06 ± 0.084 | 1.08 ± 0.088 | 1.08 ± 0.076 | 1.06 ± 0.057 | 1.04 ± 0.075 | 0.9 ± 0.039 | 1 ± 0.033 | 1.02 ± 0.075 | 0.99 ± 0.03 | 1.02 ± 0.037 | 0.991 ± 0.042 | 0.981 ± 0.057 | 1.01 ± 0.055 | 0.999 ± 0.032 | 1.02 ± 0.04 | 1 ± 0.045 | 1.02 ± 0.028 | 0.915 ± 0.022 | 1.05 ± 0.04 | 1.07 ± 0.045 | 1.04 ± 0.061 | 1.08 ± 0.046 | 1.11 ± 0.066 | 0.991 ± 0.043 | 0.997 ± 0.018 | 0.996 ± 0.011 | 1.01 ± 0.034 | 1.03 ± 0.041 | 1.05 ± 0.059 | 1.05 ± 0.11
3 | CS(=O)(=O)CCNCc1ccc(-c2ccc3ncnc(Nc4ccc(OCc5cccc(F)c5)c(Cl)c4)c3c2)o1 [lapatinib] | 0.975 ± 0.029 | 0.957 ± 0.034 | 0.943 ± 0.047 | 0.895 ± 0.075 | 0.747 ± 0.16 | 0.288 ± 0.17 | 0.803 ± 0.12 | 0.872 ± 0.13 | 0.947 ± 0.074 | 0.936 ± 0.092 | 0.926 ± 0.051 | 0.321 ± 0.14 | 0.857 ± 0.091 | 0.957 ± 0.075 | 0.965 ± 0.053 | 0.991 ± 0.062 | 0.958 ± 0.11 | 0.749 ± 0.15 | 0.878 ± 0.033 | 0.9385 ± 0.0078 | 0.955 ± 0.01 | 0.948 ± 0.025 | 0.947 ± 0.011 | 0.62 ± 0.11 | 0.0194 ± 0.093 | -0.00655 ± 0.072 | -0.0149 ± 0.1 | -0.0045 ± 0.12 | 0.00322 ± 0.13 | 0.133 ± 0.035 | 0.982 ± 0.025 | 0.9754 ± 0.0072 | 0.976 ± 0.019 | 0.985 ± 0.015 | 1.01 ± 0.027 | 0.636 ± 0.14
4 | Cc1ccc(F)c(NC(=O)Nc2ccc(-c3cccc4[nH]nc(N)c34)cc2)c1 [linifanib] | 1.039 ± 0.0077 | 1.032 ± 0.0048 | 1.02 ± 0.012 | 1.02 ± 0.014 | 0.994 ± 0.029 | 0.716 ± 0.24 | 1.07 ± 0.12 | 0.996 ± 0.14 | 1.01 ± 0.12 | 0.939 ± 0.079 | 0.874 ± 0.061 | 0.0601 ± 0.092 | 1.09 ± 0.014 | 1.07 ± 0.039 | 1.07 ± 0.032 | 1.08 ± 0.026 | 1.03 ± 0.011 | 0.544 ± 0.37 | 1.08 ± 0.014 | 1.09 ± 0.03 | 1.08 ± 0.045 | 1.07 ± 0.053 | 1.06 ± 0.045 | 0.192 ± 0.29 | 1.11 ± 0.046 | 1.08 ± 0.025 | 1.11 ± 0.043 | 1.1 ± 0.078 | 1.09 ± 0.078 | 0.232 ± 0.072 | 0.995 ± 0.011 | 0.979 ± 0.011 | 0.971 ± 0.025 | 0.969 ± 0.015 | 0.9497 ± 0.0069 | 0.701 ± 0.13
5 | C[C@]1(O)C[C@@H](c2nc(-c3ccc4ccc(-c5ccccc5)nc4c3)c3c(N)nccn32)C1 [linsitinib] | 0.956 ± 0.055 | 0.911 ± 0.081 | 0.824 ± 0.16 | 0.783 ± 0.18 | 0.731 ± 0.2 | 0.626 ± 0.26 | 0.721 ± 0.014 | 0.749 ± 0.12 | 0.555 ± 0.19 | 0.449 ± 0.14 | 0.383 ± 0.091 | 0.271 ± 0.089 | 0.841 ± 0.032 | 0.9 ± 0.032 | 0.949 ± 0.07 | 0.924 ± 0.054 | 0.896 ± 0.05 | 0.797 ± 0.051 | 0.791 ± 0.048 | 0.843 ± 0.067 | 0.861 ± 0.085 | 0.862 ± 0.068 | 0.838 ± 0.081 | 0.697 ± 0.099 | 0.657 ± 0.19 | 0.765 ± 0.11 | 0.806 ± 0.067 | 0.739 ± 0.072 | 0.678 ± 0.064 | 0.538 ± 0.085 | 0.975 ± 0.034 | 0.979 ± 0.024 | 0.93 ± 0.019 | 0.972 ± 0.048 | 0.963 ± 0.021 | 0.831 ± 0.072
6 | O=C1c2c(O)ccc(O)c2C(=O)c2c(NCCNCCO)ccc(NCCNCCO)c21 [mitoxantrone] | 0.228 ± 0.057 | 0.0237 ± 0.034 | -0.00408 ± 0.025 | -0.0492 ± 0.02 | -0.186 ± 0.1 | -0.142 ± 0.092 | 0.0337 ± 0.042 | 0.0173 ± 0.037 | 0.0313 ± 0.056 | -0.141 ± 0.11 | -0.348 ± 0.039 | -0.59 ± 0.15 | 0.252 ± 0.12 | 0.0494 ± 0.084 | -0.0983 ± 0.12 | -0.205 ± 0.14 | -0.243 ± 0.12 | -0.461 ± 0.18 | -0.0551 ± 0.058 | -0.0634 ± 0.075 | -0.137 ± 0.1 | -0.222 ± 0.15 | -0.327 ± 0.24 | -0.48 ± 0.21 | -0.0581 ± 0.17 | -0.0745 ± 0.18 | -0.0948 ± 0.2 | -0.164 ± 0.17 | -0.353 ± 0.13 | -0.707 ± 0.16 | 0.0811 ± 0.1 | -0.0173 ± 0.041 | -0.0612 ± 0.043 | -0.207 ± 0.087 | -0.394 ± 0.11 | -0.511 ± 0.17
7 | CCOc1cc2ncc(C#N)c(Nc3ccc(OCc4ccccn4)c(Cl)c3)c2cc1NC(=O)/C=C/CN(C)C [neratinib] | 0.441 ± 0.24 | 0.314 ± 0.19 | 0.191 ± 0.11 | 0.168 ± 0.098 | 0.131 ± 0.058 | 0.122 ± 0.054 | 0.722 ± 0.12 | 0.663 ± 0.081 | 0.585 ± 0.042 | 0.419 ± 0.23 | 0.299 ± 0.21 | 0.0822 ± 0.12 | 0.724 ± 0.042 | 0.669 ± 0.069 | 0.617 ± 0.11 | 0.528 ± 0.11 | 0.41 ± 0.12 | 0.301 ± 0.13 | 0.907 ± 0.13 | 0.868 ± 0.15 | 0.728 ± 0.12 | 0.581 ± 0.23 | 0.387 ± 0.29 | 0.0691 ± 0.39 | -0.108 ± 0.19 | -0.114 ± 0.2 | -0.14 ± 0.19 | -0.118 ± 0.22 | -0.152 ± 0.22 | -0.215 ± 0.19 | 0.887 ± 0.0023 | 0.81 ± 0.0089 | 0.649 ± 0.085 | 0.485 ± 0.22 | 0.274 ± 0.24 | 0.0282 ± 0.1
8 | Cc1cn(-c2cc(NC(=O)c3ccc(C)c(Nc4nccc(-c5cccnc5)n4)c3)cc(C(F)(F)F)c2)cn1 [nilotinib] | 1 ± 0.036 | 0.991 ± 0.035 | 0.978 ± 0.029 | 0.992 ± 0.044 | 0.982 ± 0.035 | 0.507 ± 0.14 | 1.03 ± 0.021 | 1.04 ± 0.038 | 0.971 ± 0.021 | 0.958 ± 0.014 | 0.956 ± 0.059 | 0.0407 ± 0.15 | 1 ± 0.043 | 1.01 ± 0.044 | 1.02 ± 0.039 | 0.996 ± 0.043 | 1 ± 0.039 | 0.0181 ± 0.099 | 0.943 ± 0.038 | 0.914 ± 0.099 | 0.863 ± 0.1 | 0.805 ± 0.14 | 0.818 ± 0.13 | 0.00998 ± 0.16 | 1.1 ± 0.074 | 1.11 ± 0.043 | 1.15 ± 0.029 | 1.11 ± 0.052 | 1.08 ± 0.068 | 0.208 ± 0.097 | 1.09 ± 0.056 | 1.1 ± 0.072 | 1.09 ± 0.078 | 1.07 ± 0.06 | 1.07 ± 0.093 | 0.028 ± 0.096
